Results from patent publication US6464958B1, “Process for the preparation of suspensions of drug particles for inhalation delivery” (Chiesi Farmaceutici S.p.A., priority 1998, dated 2002).
Where two headings read alike, the source gives them in different places.

Legend:
[1] = cited from earlier work; for stability after gamma-irradiation: 60Co, 1 to 4 Mrad; for degradation degree: micronised steroids, radiation doses 4.5 and 15 Mrad
[2] = HPLC purity and related substances of micronised BDP after gamma-irradiation; type: physicochemical
Description: (§1) About 600 g of micronised BDP was stored in a 20 1 polythene container after having replaced air by nitrogen, the container was in turn sealed in two Polikem bag. The product was subjected to gamma-irradiation at 2 to 9 KGy. After the exposure, the BDP purity and the amount of related substances were determined by HPLC. On the batch subjected to 2 kGy dose, the particle size as well as the loss of weight were also determined by Malvern analysis and TGA respectively, in comparison to the non-irradiated product.

[3] = Particle size of micronised BDP powder by Malvern analysis; type: physicochemical
Description: as §1

[4] = Loss of weight by TGA of micronised BDP after gamma-irradiation; type: physicochemical
Description: as §1

For `CCC(=O)OCC(=O)[C@@]1(OC(=O)CC)[C@@H](C)C[C@H]2[C@@H]3CCC4=CC(=O)C=C[C@]4(C)[C@@]3(Cl)[C@@H](O)C[C@@]21C` [BDP, beclomethasone dipropionate], the stability after gamma-irradiation ([1]; powder) is listed as “stable immediately after irradiation”, the stability after gamma-irradiation ([1]; solution in methanol or propylene glycol) is listed as “quick degradation” and the “stability after exposure to gamma-irradiation” value ([2]; 2 to 9 KGy) is listed as “stable”.

In the case of `CCC(=O)OCC(=O)[C@@]1(OC(=O)CC)[C@@H](C)C[C@H]2[C@@H]3CCC4=CC(=O)C=C[C@]4(C)[C@@]3(Cl)[C@@H](O)C[C@@]21C` [Irr. BDP, beclomethasone dipropionate], the “Particle size distribution (μm, Malvern) d (0.1)” value ([3]; gamma-irradiation 2 KGy) is reported as 0.48 μm, the “Particle size distribution (μm, Malvern) d (0.5)” value ([3]; gamma-irradiation 2 KGy) is reported as 1.81 μm and the “Particle size distribution (μm, Malvern) d (0.9)” value ([3]; gamma-irradiation 2 KGy) is reported as 5.73 μm. The “Loss of weight (%, TGA)” value ([4]; gamma-irradiation 2 KGy) was 0.13%, the “Purity (%)” value ([2]; gamma-irradiation 2 KGy) was 99.6% and the “Related substances (%)” value ([2]; gamma-irradiation 2 KGy) was 0.4%. For the same molecule, the “Purity (%)” value ([2]; gamma-irradiation 3.17 KGy) was 99.6%, the “Related substances (%)” value ([2]; gamma-irradiation 3.17 KGy) was 0.4% and the “Purity (%)” value ([2]; gamma-irradiation 9.08 KGy) was 99.3%. For the same molecule, the “Related substances (%)” value ([2]; gamma-irradiation 9.08 KGy) was 0.7%.

In the case of `CCC(=O)OCC(=O)[C@@]1(OC(=O)CC)[C@@H](C)C[C@H]2[C@@H]3CCC4=CC(=O)C=C[C@]4(C)[C@@]3(Cl)[C@@H](O)C[C@@]21C` [Non-irr. BDP, beclomethasone dipropionate], the “Particle size distribution (μm, Malvern) d (0.1)” value ([3]; non-irradiated powder) is reported as 0.49 μm, the “Particle size distribution (μm, Malvern) d (0.5)” value ([3]; non-irradiated powder) is reported as 1.91 μm and the “Particle size distribution (μm, Malvern) d (0.9)” value ([3]; non-irradiated powder) is reported as 5.98 μm. For the same molecule, the “Loss of weight (%, TGA)” value ([4]; non-irradiated micronised powder) was 0.12%, the “Purity (%)” value ([2]; non-irradiated) was 99.7% and the “Related substances (%)” value ([2]; non-irradiated) was 0.3%.

For `C[C@]12CCC(=O)C=C1CC[C@@H]1[C@@H]2[C@@H](O)C[C@@]2(C)[C@H]1CC[C@]2(O)C(=O)COC(=O)CCC(=O)O` [hydrocortisone sodium succinate], the percentage of degradation ([1]; powder corticosteroids sterilised with 60Co) is listed as 1.4 %/Mrad.

In the case of `C[C@]12CCC(=O)C=C1CC[C@@H]1[C@@H]2[C@@H](O)C[C@@]2(C)[C@H]1CC[C@]2(O)C(=O)CO` [hydrocortisone], the degradation degree [1] is listed as “about 2.4%”.

For `C[C@]12C=CC(=O)C=C1CC[C@@H]1[C@@H]2[C@@H](O)C[C@@]2(C)[C@H]1CC[C@]2(O)C(=O)CO` [prednisolone], the degradation degree [1] is given as “about 2.4%”.
